# In patent US4172829A, “2,9-Disubstituted adenine derivatives and their use as non-adrenergic bronchodilators” (Bristol-Myers Company, priority 1978, dated 1979):
# System: platelet aggregation
# Assay: not given
# Conditions: Chem Pharm. Bull., 25(7), 1811-1821 (1977); cited from earlier work
row,Structure (SMILES),inhibition of platelet aggregation (in words)
1,Nc1nc(SC2CCCC2)nc2c1ncn2C1CCCC1,slightly effective

# System: bronchial constriction
# Assay: not given
# Conditions: prior art; bronchial asthma; cited from earlier work
row,Structure (SMILES),bronchodilator activity (in words)
1,Cn1c(=O)c2[nH]cnc2n(C)c1=O [aminophylline],effective bronchodilator when given orally
2,Cn1c(=O)c2[nH]cnc2n(C)c1=O [Theophylline],potent and useful non-adrenergic bronchodilator

# System: not given
# Assay: not given
# Conditions: prior art; cited from earlier work
row,Structure (SMILES),solubility (in words)
1,Cn1c(=O)c2[nH]cnc2n(C)c1=O [aminophylline],readily soluble

# System: Tracheal chains of guinea pig
# Assay: In vitro bronchodilator activity, isolated tracheal chain (ITC)
# Assay type: cell-based
# Conditions: Cavia porcellus, relaxation 50% of the maximum response to 0.1 mcg./ml. of isoproterenol
# Method: Tracheal chains of guinea pig were prepared by the method described by A. Akcasu in Arch. Int. Pharmacodyn. Ther., 122, 201 (1959). The response to each test compound was recorded by the Magnus method and expressed as a percentage of the maximum response obtained with 0.1 mcg./ml. of isoproterenol prior to each experiment.
row,Structure (SMILES),EC50 [µg/mL]
1,"CCCCCCOc1nc(N)c2ncn(C3CCCCC3)c2n1 [n-C6 H13 O / drawing 30, 2-n-Hexyloxy-9-cyclohexyl-9H-adenine]",1.4
2,"Nc1nc(Cl)nc2c1ncn2C1C=CCCC1 (stereo not shown) [Cl / drawing 31, 2-Chloro-9-(2-cyclohexenyl)-9H-adenine]",0.12
3,"CCOc1nc(N)c2ncn(C3CCCCC3)c2n1 [C2 H5 O / drawing 30, 2-Ethoxy-9-cyclohexyl-9H-adenine]",0.18
4,"CCCCOc1nc(N)c2ncn(C3CCCCC3)c2n1 [n-C4 H9 O / drawing 30, 2-n-Butoxy-9-cyclohexyl-9H-adenine]",0.025
5,"CCCCCCOc1nc(N)c2ncn(C3C=CCCC3)c2n1 (stereo not shown) [n-C6 H13 O / drawing 31, 9-(2-Cyclohexenyl)-2-n-hexyloxy-9H-adenine]",> 3
6,"CC(C)COc1nc(N)c2ncn(C3C=CCCC3)c2n1 (stereo not shown) [iso-C4 H9 O / drawing 31, 9-(2-Cyclohexenyl)-2-isobutoxy-9H-adenine]",0.41
7,"CC(C)COc1nc(N)c2ncn(C3CCCCC3)c2n1 [isO-C4 H9 O / drawing 30, 2-Isobutoxy-9-cyclohexyl-9H-adenine]",0.31
8,"CCCCOc1nc(N)c2ncn(C3C=CCCC3)c2n1 (stereo not shown) [n-C4 H9 O / drawing 31, 9-(2-Cyclohexenyl)-2-n-butoxy-9H-adenine]",0.045
9,"CCOc1nc(N)c2ncn(C3C=CCCC3)c2n1 (stereo not shown) [C2 H5 O / drawing 31, 9-(2-Cyclohexenyl)-2-ethoxy-9H-adenine]",0.088
10,Cn1c(=O)c2[nH]cnc2n(C)c1=O [aminophylline],16.6
11,"CCCCCOc1nc(N)c2ncn(C3C=CCCC3)c2n1 (stereo not shown) [n-C5 H11 O / drawing 31, 9-(2-Cyclohexenyl)-2-n-pentyloxy-9H-adenine]",0.59
12,"CCCCCOc1nc(N)c2ncn(C3CCCCC3)c2n1 [n-C5 H11 O / drawing 30, 2-n-Pentyloxy-9-cyclohexyl-9H-adenine]",1.8
13,"CCCOc1nc(N)c2ncn(C3CCCCC3)c2n1 [n-C3 H7 O / drawing 30, 9-Cyclohexyl-2-n-propoxy-9H-adenine]",0.026
14,"CCCOc1nc(N)c2ncn(C3C=CCCC3)c2n1 (stereo not shown) [n-C3 H7 O / drawing 31, 9-(2-Cyclohexenyl)-2-n-propoxy-9H-adenine]",0.027

# System: not given
# Assay: not given
# Conditions: known disadvantages, prior art; cited from earlier work
row,Structure (SMILES),side effects (in words)
1,Cn1c(=O)c2[nH]cnc2n(C)c1=O [aminophylline],gastric irritation and cardiovascular and central nervous system side effects

# System: not listed separately
# Assay: Separation of bronchodilator and cardiovascular effects (ABP/ITP)
# Conditions: guinea pig, in vivo; intraduodenal; ratio of hypotensive ED20 / bronchodilating ED50
# Method: To assess the separation of desirable bronchodilator activity from undesirable cardiovascular (hypotensive) effect in the test compounds, the ratio of hypotensive ED20 /bronchodilating ED50 was calculated and indicated in Table 1.
row,Structure (SMILES),selectivity ratio
1,"CCCCOc1nc(N)c2ncn(C3CCCCC3)c2n1 [n-C4 H9 O / drawing 30, 2-n-Butoxy-9-cyclohexyl-9H-adenine]",5.9
2,"CCOc1nc(N)c2ncn(C3C=CCCC3)c2n1 (stereo not shown) [C2 H5 O / drawing 31, 9-(2-Cyclohexenyl)-2-ethoxy-9H-adenine]",19
3,"CCCOc1nc(N)c2ncn(C3CCCCC3)c2n1 [n-C3 H7 O / drawing 30, 9-Cyclohexyl-2-n-propoxy-9H-adenine]",15
4,"CCCOc1nc(N)c2ncn(C3C=CCCC3)c2n1 (stereo not shown) [n-C3 H7 O / drawing 31, 9-(2-Cyclohexenyl)-2-n-propoxy-9H-adenine]",2

# Same assay, conditions: guinea pig, in vivo; intravenous; ratio of hypotensive ED20 / bronchodilating ED50
row,Structure (SMILES),selectivity ratio
1,"Nc1nc(Cl)nc2c1ncn2C1C=CCCC1 (stereo not shown) [Cl / drawing 31, 2-Chloro-9-(2-cyclohexenyl)-9H-adenine]",17
2,"CCOc1nc(N)c2ncn(C3CCCCC3)c2n1 [C2 H5 O / drawing 30, 2-Ethoxy-9-cyclohexyl-9H-adenine]",6.8
3,"CCCCOc1nc(N)c2ncn(C3CCCCC3)c2n1 [n-C4 H9 O / drawing 30, 2-n-Butoxy-9-cyclohexyl-9H-adenine]",1470
4,"CCCCOc1nc(N)c2ncn(C3C=CCCC3)c2n1 (stereo not shown) [n-C4 H9 O / drawing 31, 9-(2-Cyclohexenyl)-2-n-butoxy-9H-adenine]",> 4.8
5,"CCOc1nc(N)c2ncn(C3C=CCCC3)c2n1 (stereo not shown) [C2 H5 O / drawing 31, 9-(2-Cyclohexenyl)-2-ethoxy-9H-adenine]",12
6,"CCCOc1nc(N)c2ncn(C3CCCCC3)c2n1 [n-C3 H7 O / drawing 30, 9-Cyclohexyl-2-n-propoxy-9H-adenine]",12
7,"CCCOc1nc(N)c2ncn(C3C=CCCC3)c2n1 (stereo not shown) [n-C3 H7 O / drawing 31, 9-(2-Cyclohexenyl)-2-n-propoxy-9H-adenine]",5.9

# System: intratracheal pressure (ITP) of guinea pig
# Assay: In vivo bronchodilator activity, intratracheal pressure test (ITP)
# Conditions: Cavia porcellus; intraduodenal; 50% decrease in intratracheal pressure
# Method: The trachea of anesthetized guinea pig was cannulated and the ITP recorded on a polygraph under artificial ventilation. Arterial blood pressure (ABP; measure of hypotensive activity) was also measured during the experiment. Data was obtained for both intravenous and intraduodenal administration.
row,Structure (SMILES),ED50 [mg/kg]
1,"CCCCOc1nc(N)c2ncn(C3CCCCC3)c2n1 [n-C4 H9 O / drawing 30, 2-n-Butoxy-9-cyclohexyl-9H-adenine]",1.4
2,"CCOc1nc(N)c2ncn(C3C=CCCC3)c2n1 (stereo not shown) [C2 H5 O / drawing 31, 9-(2-Cyclohexenyl)-2-ethoxy-9H-adenine]",0.62
3,"CCCOc1nc(N)c2ncn(C3CCCCC3)c2n1 [n-C3 H7 O / drawing 30, 9-Cyclohexyl-2-n-propoxy-9H-adenine]",1.2
4,"CCCOc1nc(N)c2ncn(C3C=CCCC3)c2n1 (stereo not shown) [n-C3 H7 O / drawing 31, 9-(2-Cyclohexenyl)-2-n-propoxy-9H-adenine]",1.2

# Same assay, conditions: Cavia porcellus; intravenous; 50% decrease in intratracheal pressure
row,Structure (SMILES),ED50 [mg/kg]
1,"CCCCCCOc1nc(N)c2ncn(C3CCCCC3)c2n1 [n-C6 H13 O / drawing 30, 2-n-Hexyloxy-9-cyclohexyl-9H-adenine]",> 3
2,"Nc1nc(Cl)nc2c1ncn2C1C=CCCC1 (stereo not shown) [Cl / drawing 31, 2-Chloro-9-(2-cyclohexenyl)-9H-adenine]",0.15
3,"CCOc1nc(N)c2ncn(C3CCCCC3)c2n1 [C2 H5 O / drawing 30, 2-Ethoxy-9-cyclohexyl-9H-adenine]",0.37
4,"CCCCOc1nc(N)c2ncn(C3CCCCC3)c2n1 [n-C4 H9 O / drawing 30, 2-n-Butoxy-9-cyclohexyl-9H-adenine]",0.003
5,"CCCCCCOc1nc(N)c2ncn(C3C=CCCC3)c2n1 (stereo not shown) [n-C6 H13 O / drawing 31, 9-(2-Cyclohexenyl)-2-n-hexyloxy-9H-adenine]",> 3
6,"CC(C)COc1nc(N)c2ncn(C3C=CCCC3)c2n1 (stereo not shown) [iso-C4 H9 O / drawing 31, 9-(2-Cyclohexenyl)-2-isobutoxy-9H-adenine]",> 3
7,"CC(C)COc1nc(N)c2ncn(C3CCCCC3)c2n1 [isO-C4 H9 O / drawing 30, 2-Isobutoxy-9-cyclohexyl-9H-adenine]",> 3
8,"CCCCOc1nc(N)c2ncn(C3C=CCCC3)c2n1 (stereo not shown) [n-C4 H9 O / drawing 31, 9-(2-Cyclohexenyl)-2-n-butoxy-9H-adenine]",0.65
9,"CCOc1nc(N)c2ncn(C3C=CCCC3)c2n1 (stereo not shown) [C2 H5 O / drawing 31, 9-(2-Cyclohexenyl)-2-ethoxy-9H-adenine]",0.33
10,"CCCCCOc1nc(N)c2ncn(C3C=CCCC3)c2n1 (stereo not shown) [n-C5 H11 O / drawing 31, 9-(2-Cyclohexenyl)-2-n-pentyloxy-9H-adenine]",> 3
11,"CCCCCOc1nc(N)c2ncn(C3CCCCC3)c2n1 [n-C5 H11 O / drawing 30, 2-n-Pentyloxy-9-cyclohexyl-9H-adenine]",> 3
12,"CCCOc1nc(N)c2ncn(C3CCCCC3)c2n1 [n-C3 H7 O / drawing 30, 9-Cyclohexyl-2-n-propoxy-9H-adenine]",0.37
13,"CCCOc1nc(N)c2ncn(C3C=CCCC3)c2n1 (stereo not shown) [n-C3 H7 O / drawing 31, 9-(2-Cyclohexenyl)-2-n-propoxy-9H-adenine]",0.34

# System: Arterial blood pressure (ABP)
# Assay: In vivo hypotensive activity, arterial blood pressure (ABP)
# Set-up: species or system guinea pig
# Conditions: intraduodenal; arterial blood pressure lowering; ED20, reduces ABP by 20%
# Method: Pharmac., 21, 379 (1969). The trachea of anesthetized guinea pig was cannulated and the ITP recorded on a polygraph under artificial ventilation. Arterial blood pressure (ABP; measure of hypotensive activity) was also measured during the experiment. Data was obtained for both intravenous and intraduodenal administration.
row,Structure (SMILES),ED20 [mg/kg]
1,"CCCCOc1nc(N)c2ncn(C3CCCCC3)c2n1 [n-C4 H9 O / drawing 30, 2-n-Butoxy-9-cyclohexyl-9H-adenine]",8.3
2,"CCOc1nc(N)c2ncn(C3C=CCCC3)c2n1 (stereo not shown) [C2 H5 O / drawing 31, 9-(2-Cyclohexenyl)-2-ethoxy-9H-adenine]",12
3,"CCCOc1nc(N)c2ncn(C3CCCCC3)c2n1 [n-C3 H7 O / drawing 30, 9-Cyclohexyl-2-n-propoxy-9H-adenine]",18
4,"CCCOc1nc(N)c2ncn(C3C=CCCC3)c2n1 (stereo not shown) [n-C3 H7 O / drawing 31, 9-(2-Cyclohexenyl)-2-n-propoxy-9H-adenine]",2.4

# Same assay, conditions: intravenous; arterial blood pressure lowering; ED20, reduces ABP by 20%
row,Structure (SMILES),ED20 [mg/kg]
1,"CCCCCCOc1nc(N)c2ncn(C3CCCCC3)c2n1 [n-C6 H13 O / drawing 30, 2-n-Hexyloxy-9-cyclohexyl-9H-adenine]",> 3
2,"Nc1nc(Cl)nc2c1ncn2C1C=CCCC1 (stereo not shown) [Cl / drawing 31, 2-Chloro-9-(2-cyclohexenyl)-9H-adenine]",2.5
3,"CCOc1nc(N)c2ncn(C3CCCCC3)c2n1 [C2 H5 O / drawing 30, 2-Ethoxy-9-cyclohexyl-9H-adenine]",2.5
4,"CCCCOc1nc(N)c2ncn(C3CCCCC3)c2n1 [n-C4 H9 O / drawing 30, 2-n-Butoxy-9-cyclohexyl-9H-adenine]",4.4
5,"CCCCCCOc1nc(N)c2ncn(C3C=CCCC3)c2n1 (stereo not shown) [n-C6 H13 O / drawing 31, 9-(2-Cyclohexenyl)-2-n-hexyloxy-9H-adenine]",2.7
6,"CC(C)COc1nc(N)c2ncn(C3C=CCCC3)c2n1 (stereo not shown) [iso-C4 H9 O / drawing 31, 9-(2-Cyclohexenyl)-2-isobutoxy-9H-adenine]",2.4
7,"CC(C)COc1nc(N)c2ncn(C3CCCCC3)c2n1 [isO-C4 H9 O / drawing 30, 2-Isobutoxy-9-cyclohexyl-9H-adenine]",> 3
8,"CCCCOc1nc(N)c2ncn(C3C=CCCC3)c2n1 (stereo not shown) [n-C4 H9 O / drawing 31, 9-(2-Cyclohexenyl)-2-n-butoxy-9H-adenine]",> 3
9,"CCOc1nc(N)c2ncn(C3C=CCCC3)c2n1 (stereo not shown) [C2 H5 O / drawing 31, 9-(2-Cyclohexenyl)-2-ethoxy-9H-adenine]",4.0
10,"CCCCCOc1nc(N)c2ncn(C3C=CCCC3)c2n1 (stereo not shown) [n-C5 H11 O / drawing 31, 9-(2-Cyclohexenyl)-2-n-pentyloxy-9H-adenine]",> 3
11,"CCCCCOc1nc(N)c2ncn(C3CCCCC3)c2n1 [n-C5 H11 O / drawing 30, 2-n-Pentyloxy-9-cyclohexyl-9H-adenine]",> 3
12,"CCCOc1nc(N)c2ncn(C3CCCCC3)c2n1 [n-C3 H7 O / drawing 30, 9-Cyclohexyl-2-n-propoxy-9H-adenine]",4.4
13,"CCCOc1nc(N)c2ncn(C3C=CCCC3)c2n1 (stereo not shown) [n-C3 H7 O / drawing 31, 9-(2-Cyclohexenyl)-2-n-propoxy-9H-adenine]",2.0
